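The compound was tested at five concentrations on cells cultured in 96-well plates, with a 48-hour exposure period. Abbreviation: GI50, concentration required for 50% inhibition of growth. TGI: total growth inhibition.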
Experiments:
Experiment in all cases: DTP human tumour cell line panel, 48 h
ACHN renal = system: ACHN renal
HS 578T breast = system: HS 578T breast
KM20L2 colon = system: KM20L2 colon
OVCAR-8 ovarian = system: OVCAR-8 ovarian
A498 renal = system: A498 renal
A549 NSCLC = system: A549 NSCLC
HCC-2998 colon = system: HCC-2998 colon
HT29 colon = system: HT29 colon
OVCAR-4 ovarian = system: OVCAR-4 ovarian
OVCAR-5 ovarian = system: OVCAR-5 ovarian
SNB-19 CNS = system: SNB-19 CNS
SW-620 colon = system: SW-620 colon

Row | Compound | TGI (ACHN renal) [µM] | GI50 (HS 578T breast) [µM] | TGI (HS 578T breast) [µM] | TGI (KM20L2 colon) [µM] | GI50 (OVCAR-8 ovarian) [µM] | TGI (A498 renal) [µM] | TGI (A549 NSCLC) [µM] | TGI (HCC-2998 colon) [µM] | TGI (HT29 colon) [µM] | TGI (OVCAR-4 ovarian) [µM] | TGI (OVCAR-5 ovarian) [µM] | TGI (OVCAR-8 ovarian) [µM] | TGI (SNB-19 CNS) [µM] | TGI (SW-620 colon) [µM] | GI50 (A498 renal) [µM] | GI50 (A549 NSCLC) [µM] | GI50 (ACHN renal) [µM] | GI50 (HT29 colon) [µM] | GI50 (OVCAR-5 ovarian) [µM] | GI50 (SW-620 colon) [µM]
1 | COc1cc2c(cc1O)CCN[C@@]21CS[C@H]2c3c(OC(C)=O)c(C)c4c(c3C(COC1=O)N1C2C2c3c(cc(C)c(OC)c3O)CC([C@@H]1O)N2C)OCO4 (stereo not given in full) | 0.0012 | 0.00279 | 0.0137 | 6.01e-05 | 0.00149 |  |  |  |  |  |  |  |  |  |  |  |  |  |  | 
2 | N=C(N)SC1c2ccccc2-c2cc([N+](=O)[O-])ccc21 (stereo not given) | 18.9 |  | 12.2 |  |  | 14.6 | 19.4 | 9.84 | 13.5 | 17.3 | 26.7 | 37.1 | 14.3 | 22.1 |  |  |  |  |  | 
3 | C/C=C1/CN2CC[C@@H]3c4ccccc4N4[C@H](C(=O)OC)[C@H]1C[C@H]2[C@]34/C=C/C1=COC[C@@H]2[C@H]1C[C@H]1c3c(c4ccccc4n3C)C[C@@H]2N1C | 7.43 |  | 8.93 |  |  | 10 | 8.28 | 1.31 | 5.92 | 6.88 | 7.99 | 8.04 | 7.39 | 7.6 |  |  |  |  |  | 
4 | O=S(=O)(O)c1cc(O)c2c(O)c(N=Nc3ccc(/C=C/c4ccc(N=Nc5c(S(=O)(=O)O)cc6cc(S(=O)(=O)O)cc(O)c6c5O)cc4S(=O)(=O)O)c(S(=O)(=O)O)c3)c(S(=O)(=O)O)cc2c1 | > 100 |  |  | > 100 |  | > 100 | > 100 | > 100 | > 100 | > 100 | > 100 | > 100 | > 100 | > 100 |  |  |  |  |  | 
5 | CC(=O)O[C@H]1CC[C@]2(C)[C@H]3C(=O)C=C4[C@@H]5C[C@](C)(C(=O)N6CCCNCC6)CC[C@]5(C)CC[C@@]4(C)[C@]3(C)CC[C@H]2C1(C)C | 3.02 | 2.13 | 4.69 |  |  | 3.1 | 4.67 |  | 3.17 |  | 2.96 |  |  | 3.22 | 1.71 | 1.82 | 1.66 | 1.5 | 1.6 | 1.67
6 | Nc1nc(SCCC/C=C/B(O)O)nc2c1ncn2C1OC(CO)C(O)C1O (stereo not given) | > 243 |  |  | > 243 |  | > 243 | > 243 | > 243 | > 243 | > 243 | > 243 | > 243 | > 243 | > 243 |  |  |  |  |  | 
7 | O=C(N/N=C/c1cc(Br)cc(Br)c1[O-])c1ccccc1O.O=C(N/N=C/c1cc(Br)cc(Br)c1[O-])c1ccccc1O.[Cl-].[Fe+3] | 18.3 |  |  | 13.9 |  |  | 36.8 | 5.65 | 13.2 | 8.24 | 7.61 | 33.4 | 21.3 | 14 |  |  |  |  |  | 
8 | CC1(C)[C@@H]2C[C@H]1C(Cc1ccccc1C[C@H]1c3cc(-c4ccccn4)ncc3[C@H]3C[C@@H]1C3(C)C)c1cc(-c3ccccn3)ncc12 (stereo not given in full) | 4.83 |  | > 100 |  |  | 4.89 | > 100 | 39.8 | > 100 | > 100 | > 100 | > 25.5 | > 100 | > 100 |  |  |  |  |  | 
9 | C=C(/C=C/C=C(/CCC=C(C)C)COC(C)=O)[C@@H]1CC[C@]2([C@H](CCCO)/C(=C(/C)C=O)CC[C@]2(C)O)[C@@H]1O | 27.6 |  |  | 27.9 |  |  | 26.2 | 20.3 | 28.4 |  | 53.7 | 52.3 | 29.7 | 22 |  |  |  |  |  | 
10 | CN(C)CCNc1ccc2nnn3c4ccc(Cl)cc4c(=O)c1c23 | 12.3 |  | 13.5 | 16 |  | 11.3 | 14.1 | 23.4 | 15.9 | 15.9 | 13.3 | 16.9 | 26.7 | 18 |  |  |  |  |  | 
11 | CCCNCC(O)/C=C/[Si](C)(C)C (stereo not given) (tested in a mixture with another compound) | > 100 |  |  | > 100 |  | > 100 | > 100 | > 100 | > 100 |  | > 100 | > 100 | > 100 | > 100 |  |  |  |  |  | 
12 | NC(Cc1ccc2oc3cc(=O)c4ccccc4c-3nc2c1)C(=O)O (stereo not given) | > 100 |  | 59.6 | > 100 |  | > 84.6 | 62.5 | 40.2 | 72.6 | > 88.9 | > 87.6 | > 100 | > 97.7 | 80.9 |  |  |  |  |  | 
13 | COc1cc2c(cc1OC)C(C1(O)CCCCC1)NCC2 (stereo not given) | > 100 |  |  | > 100 |  |  |  | > 100 | > 100 |  | > 100 | > 100 |  | > 100 |  |  |  |  |  | 
14 | Cc1c(Cl)c(S(N)(=O)=O)cc(S(N)(=O)=O)c1NC(=O)c1ccc(Cl)cc1 | > 100 |  | > 100 |  |  | > 100 | > 100 | > 100 | > 100 | > 100 | > 100 | > 100 | > 100 | > 100 |  |  |  |  |  | 
15 | O=[N+]([O-])/C=C/c1cccc(F)c1 | 6.84 |  | 9.18 |  |  | 27.4 | > 100 | 31.6 | 10.3 | 16.8 |  | 32 | 29.7 | 8.88 |  |  |  |  |  | 
16 | C#CCCCCC#CC1CCCC1C1=CC(=O)c2ccccc21 (stereo not given) | 19.9 |  |  | 22 |  | 28.3 | 30 | 25.2 | 15.9 | 23.9 | 23.7 | 3.52 | 28.8 | 6.39 |  |  |  |  |  | 
17 | Oc1ccc2ccccc2c1N=Nc1ccc(N=Nc2ccccc2)cc1 | > 100 |  | > 100 |  |  | > 100 | > 100 |  | > 100 | > 100 | > 100 | > 100 | > 100 | > 100 |  |  |  |  |  | 
18 | CCCCCCc1ccc(O)cc1O |  |  |  | > 100 |  | > 100 | > 100 | > 100 | > 100 | > 100 | > 100 | > 100 | > 100 | > 100 |  |  |  |  |  | 
19 | Nc1nc(Cl)cc(NCCCCO)n1 | > 100 |  |  | > 100 |  | > 100 | > 100 | > 100 | > 100 | > 100 | > 100 | > 100 | > 100 | > 100 |  |  |  |  |  | 
20 | CCOC(=O)C1=C(C)N2CCCOC2(C)C(C(=O)OC)C1c1cccc([N+](=O)[O-])c1 (stereo not given) | > 100 |  |  | > 100 |  |  | > 100 | > 100 | > 100 |  |  | > 100 | > 100 | > 100 |  |  |  |  |  | 
21 | CN[C@@H]1[C@H](O)[C@H](NC)[C@H]2O[C@@]3(O)C(=O)C[C@@H](C)O[C@H]3O[C@@H]2[C@H]1O | > 100 |  | > 100 |  |  | > 100 |  | > 100 | > 100 | > 100 | > 100 | > 100 | > 100 | > 100 |  |  |  |  |  | 
22 | Cc1ccccc1N=Nc1ccc(N=Nc2c(O)ccc3cc(S(=O)(=O)O)cc(S(=O)(=O)O)c23)c(C)c1 | > 100 |  | > 100 |  |  |  | > 100 | > 100 | > 100 | > 100 | > 100 | > 100 | > 100 | > 100 |  |  |  |  |  | 
